Experiments:
Assay type in all cases: cell-based
[1] = tested on: MDA-MB-231 (breast cancer); test: Antiproliferative activity (CCK-8 cell viability), MDA-MB-231; conditions: Homo sapiens, 72 h, read-out: Antiproliferative activity in cancerous cells, MDA-MB-231 (inhibition of cell growth); for inhibition at 3.3 µM: Compound concentration: 3.3 μM; for inhibition at 10 µM: Compound concentration: 10 μM; for inhibition at 30 µM: Compound concentration: 30 μM
Outline: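 MDA-MB-231 breast cancer cells, grown in DMEM with 10% FBS, were plated in 96-well plates at 2,000-5,000 cells/well. Once attached, they were exposed to compound and incubated at 37° C. for 72 h. Viability was then measured with CCK-8 (10 μL per well, 4 h at 37° C.) by absorbance at 450 nm, relative to DMSO vehicle wells.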

[2] = tested on: HepG2 (liver cancer); test: Antiproliferative activity (CCK-8 cell viability), HepG2; conditions: Homo sapiens, 72 h, read-out: Antiproliferative activity in cancerous cells, HepG2 (inhibition of cell growth); for inhibition at 3.3 µM: Compound concentration: 3.3 μM; for inhibition at 10 µM: Compound concentration: 10 μM; for inhibition at 30 µM: Compound concentration: 30 μM
Outline: (§1)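 Cells grown in DMEM (HepG2, SW480), MEM (HeLa) or F-12K (A549), each with 10% FBS, then exposed to compound at 3.3, 10 or 30 μM for 72 h at 37 °C. CCK-8 absorbance at 450 nm; viability expressed as percent of DMSO-treated cells, graded as growth inhibition bands.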

[3] = tested on: SW480 (colon cancer); test: Antiproliferative activity (CCK-8 cell viability), SW480; conditions: Homo sapiens, 72 h, read-out: Antiproliferative activity in cancerous cells, SW480 (inhibition of cell growth); for inhibition at 3.3 µM: Compound concentration: 3.3 μM; for inhibition at 10 µM: Compound concentration: 10 μM; for inhibition at 30 µM: Compound concentration: 30 μM
Outline: as §1

[4] = tested on: B16F10 (malignant melanoma); test: Antiproliferative activity (CCK-8 cell viability), B16F10; conditions: Mus musculus, 72 h, read-out: Antiproliferative activity in cancerous cells, B16F10 (inhibition of cell growth); for inhibition at 3.3 µM: B16-F10, Compound concentration: 3.3 μM; for inhibition at 10 µM: B16-F10, Compound concentration: 10 μM; for inhibition at 30 µM: B16-F10, Compound concentration: 30 μM
Outline: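 B16F10 melanoma cells grown in DMEM with 10% FBS were plated in 96-well plates at 2,000-5,000 cells/well. After attachment they were exposed to compound in medium for 72 h at 37° C. CCK-8 solution (10 μL) was then added, and after 4 h at 37° C absorbance was read at 450 nm.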

[5] = tested on: A431 (epidermoid carcinoma); test: Antiproliferative activity (CCK-8 cell viability), A431; conditions: Homo sapiens, 72 h, read-out: Antiproliferative activity in cancerous cells, A431 (inhibition of cell growth); for inhibition at 3.3 µM: A-431, Compound concentration: 3.3 μM; for inhibition at 10 µM: A-431, Compound concentration: 10 μM; for inhibition at 30 µM: A-431, Compound concentration: 30 μM
Outline: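 A431 epidermoid carcinoma cells grown in DMEM with 10% FBS were plated at 2,000-5,000 cells/well in 96-well plates. After attachment they were exposed to compound at 3.3 μM, 10 μM, or 30 μM for 72 h at 37° C. Viability was then assessed by CCK-8 against DMSO vehicle-treated wells.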

[6] = tested on: A549 (lung adenocarcinoma); test: Antiproliferative activity (CCK-8 cell viability), A549; conditions: Homo sapiens, 72 h, read-out: Antiproliferative activity in cancerous cells, A549 (inhibition of cell growth); for inhibition at 3.3 µM: Compound concentration: 3.3 μM; for inhibition at 10 µM: Compound concentration: 10 μM; for inhibition at 30 µM: Compound concentration: 30 μM
Outline: as §1

[7] = tested on: HeLa (cervical cancer); test: Antiproliferative activity (CCK-8 cell viability), HeLa; conditions: Homo sapiens, 72 h, read-out: Antiproliferative activity in cancerous cells, HELA (inhibition of cell growth); for inhibition at 3.3 µM: Compound concentration: 3.3 μM; for inhibition at 10 µM: Compound concentration: 10 μM; for inhibition at 30 µM: Compound concentration: 30 μM
Outline: as §1

SMILES	inhibition at 3.3 µM [1]	inhibition at 10 µM [1]	inhibition at 30 µM [1]	inhibition at 3.3 µM [2]	inhibition at 10 µM [2]	inhibition at 30 µM [2]	inhibition at 3.3 µM [3]	inhibition at 10 µM [3]	inhibition at 30 µM [3]	inhibition at 3.3 µM [4]	inhibition at 10 µM [4]	inhibition at 30 µM [4]	inhibition at 3.3 µM [5]	inhibition at 10 µM [5]	inhibition at 30 µM [5]	inhibition at 3.3 µM [6]	inhibition at 10 µM [6]	inhibition at 30 µM [6]	inhibition at 3.3 µM [7]	inhibition at 10 µM [7]	further results
CC1=C(CC(=O)O)c2c(F)ccc(F)c2/C1=C\c1ccc(C(C)C)cc1 [D4, (Z)-2-(4,7-Difluoro-1-(4-isopropylbenzylidene)-2-methyl-1H-inden-3-yl)acetic acid]	30 to 50%	30 to 50%	≥ 50%	< 30%	< 30%	≥ 50%	< 30%	< 30%	≥ 50%	30 to 50%	≥ 50%	≥ 50%	< 30%	< 30%	≥ 50%	< 30%	30 to 50%	≥ 50%	≥ 50%	≥ 50%	inhibition at 30 µM [7]: ≥ 50%
CC1=C(CC(=O)O)c2cc(F)ccc2/C1=C\c1ccc(COc2ccc(Cl)cc2)cc1C [B73, (Z)-2-(1-(4-((4-Chlorophenoxy)methyl)-2-methylbenzylidene)-5-fluoro-2-methyl-1H-inden-3-yl)acetic acid]	< 30%	< 30%	–	< 30%	≥ 50%	–	30 to 50%	≥ 50%	–	30 to 50%	30 to 50%	–	≥ 50%	≥ 50%	–	< 30%	≥ 50%	–	30 to 50%	≥ 50%	–
CC1=C(CC(=O)O)c2cc(F)ccc2/C1=C\c1ccc(Oc2ccc(Cl)nc2)cc1 [C65, (Z)-2-(1-(4-((6-Chloropyridin-3-yl)oxy)benzylidene)-5-fluoro-2-methyl-1H-inden-3-yl)acetic acid]	< 30%	< 30%	–	30 to 50%	≥ 50%	–	< 30%	< 30%	–	30 to 50%	≥ 50%	–	≥ 50%	≥ 50%	–	< 30%	≥ 50%	–	30 to 50%	≥ 50%	–
CC1=C(CC(=O)O)c2cc(Br)ccc2/C1=C\c1ccc(COCc2ccc(Cl)cc2)cc1 [B120, (Z)-2-(5-Bromo-1-(4-(((4-chlorobenzyl)oxy)methyl)benzylidene)-2-methyl-1H-inden-3-yl)acetic acid]	< 30%	< 30%	–	30 to 50%	≥ 50%	–	< 30%	≥ 50%	–	< 30%	< 30%	–	≥ 50%	≥ 50%	–	30 to 50%	≥ 50%	–	≥ 50%	≥ 50%	–
CC1=C(CC(=O)O)c2cc(Br)ccc2/C1=C\c1cccc(Oc2ccccc2)c1 [C110, (Z)-2-(5-Bromo-2-methyl-1-(3-phenoxybenzylidene)-1H-inden-3-yl)acetic acid]	< 30%	≥ 50%	–	< 30%	≥ 50%	–	< 30%	30 to 50%	–	≥ 50%	≥ 50%	–	< 30%	≥ 50%	–	< 30%	≥ 50%	–	< 30%	≥ 50%	–
CC1=C(CC(=O)O)c2cc(F)ccc2/C1=C\c1ccc(-c2ccc(Cl)cc2)cc1 [D13, (Z)-2-(1-((4′-Chloro-[1,1′-biphenyl]-4-yl)methylene)-5-fluoro-2-methyl-1H-inden-3-yl)acetic acid]	< 30%	30 to 50%	≥ 50%	< 30%	< 30%	< 30%	30 to 50%	30 to 50%	30 to 50%	≥ 50%	≥ 50%	≥ 50%	< 30%	30 to 50%	30 to 50%	< 30%	< 30%	30 to 50%	< 30%	≥ 50%	inhibition at 30 µM [7]: ≥ 50%
CC1=C(CC(=O)O)c2cc(F)ccc2/C1=C\c1ccc(CCCc2ccc(O)cc2)cc1 [B129, (Z)-2-(5-Fluoro-1-(4-(3-(4-hydroxyphenyl)propyl)benzylidene)-2-methyl-1H-inden-3-yl)acetic acid]	≥ 50%	≥ 50%	–	< 30%	≥ 50%	–	< 30%	< 30%	–	≥ 50%	≥ 50%	–	< 30%	≥ 50%	–	30 to 50%	≥ 50%	–	< 30%	≥ 50%	–
CCc1ccc(Oc2ccc(/C=C3\C(C)=C(CC(=O)O)c4cc(Cl)ccc43)cc2)cc1 [E31, (E)-2-(5-Chloro-1-(4-(4-ethylphenoxy)benzylidene)-2-methyl-1H-inden-3-yl)acetic acid]	≥ 50%	≥ 50%	≥ 50%	< 30%	≥ 50%	≥ 50%	30 to 50%	30 to 50%	≥ 50%	30 to 50%	≥ 50%	≥ 50%	≥ 50%	≥ 50%	≥ 50%	≥ 50%	≥ 50%	≥ 50%	≥ 50%	≥ 50%	inhibition at 30 µM [7]: ≥ 50%

Source: US20260184663A1, “INDENE COMPOUNDS, PHARMACEUTICAL COMPOSITIONS THEREOF, AND THEIR THERAPEUTIC APPLICATIONS” (NucMito Pharmaceuticals co. Ltd., priority 2022, published 2026)
